Several values for one entry are separate records, joined by “and”; a condition that tells them apart may be missing. Equal values may be shown once. Activity calls are given as the source filed them.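 Rule for the calls: active = compounds giving half or more protection of infected cells from virus-caused growth loss, again on retest; inactive = the rest.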 Where a SMILES comes first, the peptide text is derived from it. The star is where a group is joined. Boc = CC(C)(C)OC(=O)*
Test system: CEM cells HIV-1 protection, formazan growth assay
Assay: NCI AIDS Antiviral Assay
Details: for IC50: measured here: growth of uninfected CEM cells
In short: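 Soluble formazan readout of cell growth; CEM cells ± HIV-1; 5 drug concs. ≥50% protection → retest; ≥50% again = moderately active; reproducible 100% = confirmed active.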

NC(CS)=NC1CCCCC1
EC50: > 200 µM
IC50: 107 µM

O=C1CC23CCCC2(C1)CC(=O)C3 (stereo not drawn)
EC50: > 126 µM
IC50: > 126 µM

Nc1ccc2ncc(Nc3ccc(F)cc3)nc2c1
EC50: > 269 µM
IC50: 135 µM

CC1(C)CC(=O)C2=C(C1)Nc1ccccc1NC2c1ccc([N+](=O)[O-])cc1 (stereo not drawn)
EC50: > 200 µM
IC50: 29.5 µM

S=c1sc2cscc2s1
EC50: > 52.5 µM
IC50: 30.9 µM

Nc1ccc(O)c(C(=O)[O][Sn]([c]2ccccc2)([c]2ccccc2)[c]2ccccc2)c1
EC50: > 2 µM
IC50: 0.129 µM

COC(=O)c1cc(C(=CCl)c2cc(C(=O)OC)c(OC)c(Br)c2C)c(C)c(Br)c1OC
EC50: > 200 µM
IC50: 6.46 µM

C[C@]12CCC(=O)C=C1CC[C@@H]1C2CC[C@]2(C)NC(=O)C(C#N)CC12 (stereo partly drawn)
outcome: inactive

CN1NC2=NCCN=C3NN(C)C(=NCCN=C1S2)S3
outcome: inactive
IC50: > 200 µM

Cc1ncc([N+](=O)[O-])n1CC(O)Cn1ccnc1[N+](=O)[O-] (stereo not drawn)
EC50: > 200 µM
IC50: > 200 µM

Clc1ccc(OCc2nnc3n2N=C(c2ccc(Br)cc2)CS3)cc1
outcome: inactive

N#CC1=C(Cl)NC(Cl)=C(C#N)C1c1c(Cl)cccc1Cl
EC50: 18.2 µM
IC50: > 100 µM

Cc1ccc(NC(=O)C(=O)Cc2cc[n+]([O-])cc2)cc1
EC50: > 47.9 µM
IC50: > 47.9 µM

CCOC(=O)CCc1ccc(NC(=O)/C=C/c2ccc([N+](=O)[O-])o2)cc1
EC50: > 200 µM
IC50: 0.372 µM

CC(=O)O[C@H]1CC[C@@]2(C)C(CC[C@@H]3C2C(Br)C(=O)[C@]2(C)C4C(CC32)OC2(OCC(C)CC2Br)C4C)C1 (stereo partly drawn)
outcome: inactive

N/C1=C/C(=O)NC(=O)c2c(c3ccccc3oc2=O)C1
EC50: > 200 µM
IC50: > 200 µM

O=C(CC(O)(c1ccccc1)c1ccc(Cl)cc1)NC(=O)c1ccccc1O (stereo not drawn)
EC50: > 13.2 µM
IC50: > 13.2 µM

Cc1cn(C2CC(O)C(CO)O2)c(=O)n2nnnc12 (stereo not drawn)
outcome: inactive

COC(=O)C(Cc1c[nH]c2ccccc12)NC(=O)C(Cc1c[nH]c2ccccc12)NC(=O)C(Cc1c[nH]c2ccccc12)NC(=O)C(Cc1c[nH]c2ccccc12)NC(=O)C(Cc1c[nH]c2ccccc12)NC(=O)C(Cc1c[nH]c2ccccc12)NC(=O)C(Cc1c[nH]c2ccccc12)NC(=O)C(Cc1c[nH]c2ccccc12)NC(=O)OC(C)(C)C (stereo not drawn) (Boc-WWWWWWWW-OMe; configuration not given here)
EC50: > 100 µM
IC50: 40.7 µM

COc1ccc(-c2nc(SC)n(C3OC(COC(C)=O)C(OC(C)=O)C(OC(C)=O)C3OC(C)=O)c(=O)c2C#N)cc1 (stereo not drawn)
EC50: > 200 µM
IC50: 41.7 µM and 46.8 µM

Cc1ccccc1N1OS(=O)(=O)CC1(C#N)c1ccccc1 (stereo not drawn)
EC50: > 83.2 µM
IC50: > 83.2 µM

Cc1cccc(CC(Cc2ccc(C)cc2C(=O)O)C(=O)O)c1 (stereo not drawn)
EC50: > 200 µM
IC50: > 200 µM

Cc1ccc(C2(c3ccc(F)cc3)OC(=O)c3ccccc32)c(O)c1 (stereo not drawn)
outcome: inactive

O=C1CC(c2ccc(O)c(O)c2)c2cc(O)c3c(c2O1)C[C@@H](O)[C@@H](c1ccc(O)c(O)c1)O3 (stereo partly drawn)
EC50: > 200 µM
IC50: 15.8 µM

CCO/C=C1\N=C(c2ccc(Cl)c(Cl)c2)OC1=O
EC50: > 126 µM
IC50: > 126 µM

Oc1ccc(Cl)cc1-c1nc2ccccc2s1
EC50: > 138 µM
IC50: 75.9 µM

O=C([CH-]C(=O)c1ccccc1)c1ccccc1.O=C([CH-]C(=O)c1ccccc1)c1ccccc1.[OH-].[OH-].[Ti+4]
EC50: > 25.7 µM
IC50: > 25.7 µM

Nc1nc(=O)n(C2OC(CO)CC2F)cc1F (stereo not drawn)
EC50: 55 µM
IC50: 575 µM

CC(=O)OC1COC(Nc2nc(NCc3ccccc3)n(C)c(=O)c2N=O)C(OC(C)=O)C1OC(C)=O (stereo not drawn)
EC50: > 200 µM
IC50: > 200 µM

Cc1ncc2c[n+]([O-])ccn12
EC50: > 1660 µM
IC50: > 1660 µM

C=CC(=O)NC(N)=NC#N
EC50: > 1820 µM
IC50: 60.3 µM

CC(C)C(F)(C(N)=O)C(=O)O (stereo not drawn)
EC50: > 200 µM
IC50: > 200 µM

COC(=O)C1C=CCON2CCc3c(n(C)c4ccccc34)C12 (stereo not drawn)
EC50: > 22.9 µM
IC50: > 22.9 µM

CC1=C(C(=O)NCC(C)O)CC(C(=O)NCC(C)O)=C(C)N1 (stereo not drawn)
EC50: > 200 µM
IC50: > 200 µM

O=C1c2ccccc2C(=O)c2c(NCCOCCO)ccc(NCCOCCO)c21
EC50: > 200 µM
IC50: 107 µM

NC(N)=NCCS(=O)(=O)O
EC50: > 200 µM
IC50: > 200 µM

CC(C)c1cccc(C(C)C)c1NC(=O)/C(Cc1nc2ccc(Cl)cc2[nH]c1=O)=N\NC(=O)C[N+](C)(C)C
EC50: > 162 µM
IC50: > 162 µM

COC(=O)C(C(=O)C(=O)Nc1ccc(C)cc1C)c1nc2ccc([N+](=O)[O-])cc2[nH]c1=O (stereo not drawn)
EC50: > 575 µM
IC50: 129 µM

Cc1ccc(-n2nc3c(c(C#N)c2=O)-c2ccccc2C3=O)cc1
outcome: inactive

O=c1n(-c2ccccc2)c(=O)n2c(-c3ccccc3)c(-c3ccccc3)n12
EC50: > 200 µM
IC50: 30.9 µM

CCC(O)(Cc1ccc(OC)cc1)c1ccc(OC)cc1 (stereo not drawn)
EC50: > 200 µM
IC50: 123 µM

Cc1ccc(S(=O)(=O)/N=S(\C)c2cccc(Cl)c2)cc1 (stereo not drawn)
EC50: > 200 µM
IC50: 170 µM

COC(=O)C1C=CCC2CCCCC21N1CCCC1 (stereo not drawn)
outcome: inactive

CCCCNc1nc(C#N)c(N)s1
EC50: > 1260 µM
IC50: 204 µM

CCOC(=O)C1CCn2c(nc3c2c(=O)n(C)c(=O)n3C)S1 (stereo not drawn)
outcome: inactive

O=[N+]([O-])c1ccc(Cl)cc1C1SCc2nc3ccccc3n21 (stereo not drawn)
outcome: inactive

COc1cccc(C2=NC(C(C)C)CO2)c1OC (stereo not drawn)
EC50: > 525 µM
IC50: 316 µM

N#Cc1cc([N+](=O)[O-])ccc1NC(=O)/C(=N\NC(=O)c1ccncc1)C(c1cnc2ccc([N+](=O)[O-])cc2n1)[N+](=O)[O-] (stereo not drawn)
EC50: > 45.7 µM
IC50: 8.71 µM

N#CC1(C#N)C(C#N)(C#N)C12CCCCCC2
outcome: inactive

O=c1cc2ccccc2nn1Cc1ccccc1Cl
EC50: > 251 µM
IC50: > 251 µM

CCCCCCCCCCCCC(Br)C(=O)SCCNC(=O)CCNC(=O)[C@@H](O)C(C)(C)COP(=O)(O)OP(=O)(O)OCC1OC(n2cnc3c(N)ncnc32)C(O)C1OP(=O)(O)O (stereo partly drawn)
outcome: inactive

c1ccc(CSC(SCc2ccccc2)(c2ccccc2)c2ccccc2)cc1
EC50: > 200 µM
IC50: 102 µM and > 100 µM

O=c1c(-c2cccc(O)c2O)coc2cc(OC3OC(CO)C(O)C(O)C3O)ccc12 (stereo not drawn)
EC50: > 200 µM
IC50: > 200 µM

CC(C)C12C=CC(C)(CC1)n1c(=O)c3cc4ccccc4cc3c(=O)n12 (stereo not drawn)
EC50: > 4.17 µM
IC50: > 4.17 µM

CC1(C)CS(=O)(=O)CC(C)(C)C(=O)C1=O
EC50: > 200 µM
IC50: > 200 µM

[Ni+2].[O-]/C(=N\N=C/c1cccc(F)c1)c1ccncc1.[O-]/C(=N\N=C\c1cccc(F)c1)c1ccncc1
EC50: > 100 µM
IC50: 38 µM

CC(C)(C)C1=CC(O)(c2c3ccccc3c(C3(O)C=C(C(C)(C)C)C(=O)C(C(C)(C)C)=C3)c3ccccc23)C=C(C(C)(C)C)C1=O
EC50: > 100 µM
IC50: > 100 µM

O=[As](O)(O)c1ccc(F)cc1
EC50: > 200 µM
IC50: > 200 µM

O=C1OC2c3ccccc3C(=O)C2(c2ccccc2)N1c1ccccc1 (stereo not drawn)
EC50: > 200 µM
IC50: 126 µM

Cn1c2ccccc2c2c3c(ccc21)C(=O)N(c1ccccc1)C3=O
EC50: > 93.3 µM
IC50: 60.3 µM

CCOC1OCN(C)CC1(C)C (stereo not drawn)
EC50: > 1450 µM
IC50: 79.4 µM

c1ccc2c(c1)CCCc1cc3ccccc3nc1-2
EC50: > 55 µM
IC50: > 55 µM
